This assay deals with HCT116 cells. Description: In vitro cytotoxicity measured by the cell colony formation assay. Format: cell-based. The following applies: 72 h drug incubation, colonies counted after 7 days, ID50 = drug concentration producing 50% inhibition of colony formation, read-out: IN VITRO ID 50 (nm) HCT116. The protocol: In Vitro Cytotoxicity Measured by the Cell Colony Formation Assay
Four hundred cells (HCT116) were plated in 60 mm Petri dishes containing 2.7 mL of medium (modified McCoy's 5a medium containing 10% fetal bovine serum and 100 units/mL penicillin and 100 µg/mL streptomycin). The cells were incubated in a CO2 incubator at 37° C. for 5 h for attachment to the bottom of Petri dishes. The compounds identified in Example 2 were made up fresh in medium at ten times the final concentration, and then 0.3 mL of this stock solution was added to the 2.7 mL of medium in the dish. The cells were then incubated with drugs for 72 h at 37° C. At the end of incubation the drug-containing media were decanted, the dishes were rinsed with 4 mL of Hank's Balance Salt Solution (HBSS), 5 mL of fresh medium was added, and the dishes were returned to the incubator for colony formation. The cell colonies were counted using a colony counter after incubation for 7 days.

Regarding `CC(=O)O[C@H]1C(=O)[C@@]2(C)[C@H]([C@H](OC(=O)c3ccccc3)[C@]3(O)C[C@H](OC(=O)[C@H](O)[C@@H](NC(=O)c4ccccc4)c4ccccc4)C(C)=C1C3(C)C)[C@]1(OC(C)=O)CO[C@@H]1C[C@@H]2O` [taxol], the IC50 stood at 2.1 nM.
